Assay results published in patent US11998539B2, “Substituted aminoquinolones as DGKalpha inhibitors for immune activation” (Bayer Aktiengesellschaft, priority 2019, dated 2024).

Molecular target: DGKα (Homo sapiens (Human), UniProt P23743)
Test: Human DGKα kinase activity inhibition assay (ADP-Glo)
Assay type: biochemical
Settings: recombinant full-length human DGKα, 55 μM ATP, 7 μM 1,2-dioleoyl-sn-glycerol, read-out: IC50 values of examples in in vitro human DGKa kinase activity inhibition assays
How it was run: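 Activity was measured as ADP production, detected by luciferase luminescence after removal of unused ATP. The enzyme was baculovirus-expressed full-length human DGKα with a C-terminal FLAG tag. The substrate was 1,2-dioleoyl-sn-glycerol in detergent micelles, and compounds came from 100× DMSO solutions.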

DGKα, sequence (P23743 other isoform, or with tags, fused parts or gaps): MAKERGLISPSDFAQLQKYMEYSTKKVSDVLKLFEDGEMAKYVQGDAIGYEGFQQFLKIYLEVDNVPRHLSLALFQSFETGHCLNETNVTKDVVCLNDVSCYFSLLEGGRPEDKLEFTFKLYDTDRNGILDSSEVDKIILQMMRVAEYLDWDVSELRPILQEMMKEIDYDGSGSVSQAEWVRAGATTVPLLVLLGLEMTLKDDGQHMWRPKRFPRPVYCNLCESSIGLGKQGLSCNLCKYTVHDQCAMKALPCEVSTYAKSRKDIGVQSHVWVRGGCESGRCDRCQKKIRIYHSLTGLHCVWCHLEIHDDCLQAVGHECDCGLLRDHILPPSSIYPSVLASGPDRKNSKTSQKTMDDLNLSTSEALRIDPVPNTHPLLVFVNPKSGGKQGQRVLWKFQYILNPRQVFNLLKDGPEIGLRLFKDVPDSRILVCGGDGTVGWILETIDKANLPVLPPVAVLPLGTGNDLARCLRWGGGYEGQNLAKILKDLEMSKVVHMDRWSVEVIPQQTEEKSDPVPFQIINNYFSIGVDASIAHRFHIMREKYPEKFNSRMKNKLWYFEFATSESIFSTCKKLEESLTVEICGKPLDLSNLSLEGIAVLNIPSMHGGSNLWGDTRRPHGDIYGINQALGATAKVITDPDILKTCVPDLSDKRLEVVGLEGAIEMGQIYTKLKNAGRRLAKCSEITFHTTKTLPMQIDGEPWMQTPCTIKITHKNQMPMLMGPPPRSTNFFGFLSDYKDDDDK

SMILES	IC50 [nM]
Cc1ccc2oc(C3(C)CCN(c4c(C#N)c(=O)n(C)c5c(Br)cccc45)CC3)nc2c1C(F)(F)F [Example 233, 8-bromo-1-methyl-4-{4-methyl-4-[5-methyl-4-(trifluoromethyl)-1,3-benzoxazol-2-yl]piperidin-1-yl}-2-oxo-1,2-dihydroquinoline-3-carbonitrile]	1270
Cc1ccc2oc(C3CCN(c4c(C#N)c(=O)n(C)c5cc(N(C)CCO)c(C)cc45)CC3)nc2c1 [Example 551, 7-[(2-hydroxyethyl)(methyl)amino]-1,6-dimethyl-4-[4-(5-methyl-1,3-benzoxazol-2-yl)piperidin-1-yl]-2-oxo-1,2-dihydroquinoline-3-carbonitrile]	0.1
Cn1c(=O)c(C(N)=O)c(N2CCC(c3nnc(-c4ccccc4)o3)CC2)c2cc(Br)ccc21 [Example 524, 6-bromo-1-methyl-2-oxo-4-[4-(5-phenyl-1,3,4-oxadiazol-2-yl)piperidin-1-yl]-1,2-dihydroquinoline-3-carboxamide]	45
Cc1ccc2oc(C3CCN(c4c(C(N)=O)c(=O)n(C)c5cc(N(C)C6COC6)ccc45)CC3)nc2c1 [Example 494, 1-methyl-4-[4-(5-methyl-1,3-benzoxazol-2-yl)piperidin-1-yl]-7-[methyl(oxetan-3-yl)amino]-2-oxo-1,2-dihydroquinoline-3-carboxamide]	6.2
Cn1c(=O)c(C#N)c(N2CCC(c3cccc(Br)c3)CC2)c2ccccc21 [Example 85]	54
COc1ccccc1C1(O)CCN(c2c(C#N)c(=O)n(C)c3ccccc23)CC1 [Example 331, 4-[4-hydroxy-4-(2-methoxyphenyl)piperidin-1-yl]-1-methyl-2-oxo-1,2-dihydroquinoline-3-carbonitrile]	861
Cc1ccc2oc(C3CCN(c4c(C#N)c(=O)n(C)c5cc(F)ccc45)CC3)nc2c1 [Example 238, 7-fluoro-1-methyl-4-[4-(5-methyl-1,3-benzoxazol-2-yl)piperidin-1-yl]-2-oxo-1,2-dihydroquinoline-3-carbonitrile]	12
Cc1ccc2nc(C3CCN(c4c(C#N)c(=O)n(C)c5ccccc45)CC3)oc2c1 [Example 7, 1-methyl-4-[4-(6-methyl-1,3-benzoxazol-2-yl)piperidin-1-yl]-2-oxo-1,2-dihydroquinoline-3-carbonitrile]	3.2
Cn1c(=O)c(C#N)c(N2CCC(c3nc(-c4ccccc4)no3)CC2)c2cc(Br)ccc21 [Example 440, 6-bromo-1-methyl-2-oxo-4-[4-(3-phenyl-1,2,4-oxadiazol-5-yl)piperidin-1-yl]-1,2-dihydroquinoline-3-carbonitrile]	8.9
Cn1c(=O)c(C#N)c(N2CCC(c3nc4ccccc4o3)CC2)c2ccc(F)cc21 [Example 236, 4-[4-(1,3-benzoxazol-2-yl)piperidin-1-yl]-7-fluoro-1-methyl-2-oxo-1,2-dihydroquinoline-3-carbonitrile]	4.3
Cn1c(=O)c(C(N)=O)c(N2CCC(c3ccc4c(c3)CC(O)C4)CC2)c2ccccc21 (stereo not shown) [Example 467, 4-[4-(2-hydroxy-2,3-dihydro-1H-inden-5-yl)piperidin-1-yl]-1-methyl-2-oxo-1,2-dihydroquinoline-3-carboxamide]	3.9
COc1ccc2cc(C3CCN(c4c(C#N)c(=O)n(C)c5ccccc45)CC3)ccc2c1 [Example 343, 4-[4-(6-methoxynaphthalen-2-yl)piperidin-1-yl]-1-methyl-2-oxo-1,2-dihydroquinoline-3-carbonitrile]	16
CC(=O)c1ccc(C2(C)CCN(c3c(C#N)c(=O)n(C)c4ccccc34)CC2)cc1 [Example 335, 4-[4-(4-acetylphenyl)-4-methylpiperidin-1-yl]-1-methyl-2-oxo-1,2-dihydroquinoline-3-carbonitrile]	2.3
COCc1ccc2oc(C3(C)CCN(c4c(C(N)=O)c(=O)n(C)c5ccccc45)CC3)nc2c1 [Example 490, 4-{4-[5-(methoxymethyl)-1,3-benzoxazol-2-yl]-4-methylpiperidin-1-yl}-1-methyl-2-oxo-1,2-dihydroquinoline-3-carboxamide]	7.8
COC1(c2cc3ccccc3s2)CCN(c2c(C#N)c(=O)n(C)c3ccccc23)CC1 [Example 341, 4-[4-(1-benzothiophen-2-yl)-4-methoxypiperidin-1-yl]-1-methyl-2-oxo-1,2-dihydroquinoline-3-carbonitrile]	3.3
Cc1ccc2c(N3CCC(c4nc5ccccc5o4)CC3)c(C(N)=O)c(=O)n(C)c2c1 [Example 314, 4-[4-(1,3-benzoxazol-2-yl)piperidin-1-yl]-1,7-dimethyl-2-oxo-1,2-dihydroquinoline-3-carboxamide]	1.7
Cn1c(=O)c(C#N)c(N2CCC(c3ccn(-c4cccc(Cl)c4)n3)CC2)c2ccccc21 [Example 368, 4-{4-[1-(3-chlorophenyl)-1H-pyrazol-3-yl]piperidin-1-yl}-1-methyl-2-oxo-1,2-dihydroquinoline-3-carbonitrile]	13

SMILES	IC50 [nM]
Cn1c(=O)c(C#N)c(N2CCC(c3cccc(NS(=O)(=O)c4ccccc4)c3)CC2)c2ccccc21 [Example 68, N-{3-[1-(3-cyano-1-methyl-2-oxo-1,2-dihydroquinolin-4-yl)piperidin-4-yl]phenyl}benzenesulfonamide]	99
Cn1c(=O)c(C#N)c(N2CCC(c3ccc4c(c3)OC(C)(C)O4)CC2)c2ccccc21 [Example 360, 4-[4-(2,2-dimethyl-2H-1,3-benzodioxol-5-yl)piperidin-1-yl]-1-methyl-2-oxo-1,2-dihydroquinoline-3-carbonitrile]	1.2
Cc1ccc2oc(C3CCN(c4c(C#N)c(=O)n(C)c5cc(OC6CCOC6)ccc45)CC3)nc2c1 (single isomer, unassigned) [Example 381, 1-methyl-4-[4-(5-methyl-1,3-benzoxazol-2-yl)piperidin-1-yl]-2-oxo-7[(oxolan-3-yl)oxy]-1,2-dihydroquinoline-3-carbonitrile]	7.4
Cc1ccc2oc(C3(C)CCN(c4c(C(N)=O)c(=O)n(C)c5ccc(Br)cc45)CC3)nc2c1 [Example 203, 6-bromo-1-methyl-4-[4-methyl-4-(5-methyl-1,3-benzoxazol-2-yl)piperidin-1-yl]-2-oxo-1,2-dihydroquinoline-3-carboxamide]	0.9
COc1ccc2c(N3CCC(c4nc5ccccc5o4)CC3)c(C#N)c(=O)n(C)c2c1 [Example 243, 4-[4-(1,3-benzoxazol-2-yl)piperidin-1-yl]-7-methoxy-1-methyl-2-oxo-1,2-dihydroquinoline-3-carbonitrile]	3.5
Cc1ccc2oc(C3CCN(c4c(C(N)=O)c(=O)n(C)c5ccc(OCC(C)(F)F)cc45)CC3)nc2c1 [Example 503, 6-(2,2-difluoropropoxy)-1-methyl-4-[4-(5-methyl-1,3-benzoxazol-2-yl)piperidin-1-yl]-2-oxo-1,2-dihydroquinoline-3-carboxamide]	2690
CC1Cc2cc(C3CCN(c4c(C(N)=O)c(=O)n(C)c5ccccc45)CC3)ccc2O1 (stereo not shown) [Example 466, 1-methyl-4-{4-[2-methyl-2,3-dihydro-1-benzofuran-5-yl]piperidin-1-yl}-2-oxo-1 2-dihydroquinoline-3-carboxamide]	0.5
Cn1c(=O)c(C#N)c(N2CCC(c3nc4cc(Cl)ccc4o3)CC2)c2cccc(Br)c21 [Example 159, 8-bromo-4-[4-(5-chloro-1,3-benzoxazol-2-yl)piperidin-1-yl]-1-methyl-2-oxo-1,2-dihydroquinoline-3-carbonitrile]	383
Cc1nc2ccc(C3CCN(c4c(C#N)c(=O)n(C)c5ccccc45)CC3)cc2s1 [Example 377, 1-methyl-4-[4-(2-methyl-1,3-benzothiazol-6-yl)piperidin-1-yl]-2-oxo-1,2-dihydroquinoline-3-carbonitrile]	4.8
CC(C)Oc1ccc(C2CCN(c3c(C(N)=O)c(=O)n(C)c4ccccc34)CC2)cc1 [Example 102, 1-methyl-2-oxo-4-(4-{4-[(propan-2-yl)oxy]phenyl}piperidin-1-yl)-1,2-dihydroquinoline-3-carboxamide]	0.3
Cn1c(=O)c(C(N)=O)c(N2CCC(c3ccc4c(c3)C3(CCC3)C(=O)N4)CC2)c2ccccc21 [Example 469, 1-methyl-2-oxo-4-[4-(2′-oxo-1′,2′-dihydrospiro[cyclobutane-1,3′-indol]-5′-yl)piperidin-1-yl]-1,2-dihydroquinoline-3-carboxamide]	33
Cc1ccc2oc(C3CCN(c4c(C#N)c(=O)n(C)c5cc([N+](=O)[O-])c(C)cc45)CC3)nc2c1 [Example 421, 1,6-dimethyl-4-[4-(5-methyl-1,3-benzoxazol-2-yl)piperidin-1-yl]-7-nitro-2-oxo-1,2-dihydroquinoline-3-carbonitrile]	137
Cc1ccc2oc(C3(F)CCN(c4c(C(N)=O)c(=O)n(C)c5cc(OC6CCOC6)ccc45)CC3)nc2c1 (stereo not shown) [Example 509, 4-[4-fluoro-4-(5-methyl-1,3-benzoxazol-2-yl)piperidin-1-yl]-1-methyl-2-oxo-7-[(oxolan-3-yl)oxy]-1,2-dihydroquinoline-3-carboxamide]	2
Cc1ccc2oc(C3(C)CCN(c4c(C#N)c(=O)n(C)c5ccc(Br)cc45)CC3)nc2c1 [Example 171, 6-bromo-1-methyl-4-[4-methyl-4-(5-methyl-1,3-benzoxazol-2-yl)piperidin-1-yl]-2-oxo-1,2-dihydroquinoline-3-carbonitrile]	1.5
Cn1c(=O)c(C#N)c(N2CCC(c3nc4ccccc4o3)CC2)c2ccc(C(F)(F)F)cc21 [Example 291, 4-[4-(1,3-benzoxazol-2-yl)piperidin-1-yl]-1-methyl-2-oxo-7-(trifluoromethyl)-1,2-dihydroquinoline-3-carbonitrile]	11
Cn1c(=O)c(C#N)c(N2CCC(c3cccc(N4CCOCC4)c3)CC2)c2ccccc21 [Example 63]	39
COc1ccc2c(c1)c(N1CCC(c3nc4ccc(C)cc4o3)CC1)c(C#N)c(=O)n2C [Example 190, 6-methoxy-1-methyl-4-[4-(6-methyl-1,3-benzoxazol-2-yl)piperidin-1-yl]-2-oxo-1,2-dihydroquinoline-3-carbonitrile]	5.7
